This passage reports Compound recovery, Retention_time and IC50 results from ChEMBL document CHEMBL3526141, “Characterization of human liver enzymes involved in the biotransformation of boceprevir, a hepatitis C virus protease inhibitor” (Drug Metab Dispos, 2011).

One data set has as its target Cytochrome P450 3A5 (Homo sapiens, UniProt P20815). As to the kind of experiment: Drug metabolism assessed as human CYP3A5-mediated compound formation from 20 uM [14C]boceprevir after 120 mins by LC-MS/FSA method relative to total [14C]boceprevir. It counts as ADME. The settings on record: recombinant enzyme, 2 h.
A short description of data set [1]: Retention time of the compound by LC-MS/MS method. Type of data set: physicochemical.
Another data set deals with Cytochrome P450 2C19 (Homo sapiens, UniProt P33261). As to the kind of experiment: Drug metabolism assessed as human CYP2C19-mediated compound formation from 5 uM [14C]boceprevir after 120 mins by LC-MS/FSA method relative to total [14C]boceprevir. It counts as ADME. To be noted: recombinant enzyme, 2 h.
Sequence of Cytochrome P450 2C19 (P33261 whole entry): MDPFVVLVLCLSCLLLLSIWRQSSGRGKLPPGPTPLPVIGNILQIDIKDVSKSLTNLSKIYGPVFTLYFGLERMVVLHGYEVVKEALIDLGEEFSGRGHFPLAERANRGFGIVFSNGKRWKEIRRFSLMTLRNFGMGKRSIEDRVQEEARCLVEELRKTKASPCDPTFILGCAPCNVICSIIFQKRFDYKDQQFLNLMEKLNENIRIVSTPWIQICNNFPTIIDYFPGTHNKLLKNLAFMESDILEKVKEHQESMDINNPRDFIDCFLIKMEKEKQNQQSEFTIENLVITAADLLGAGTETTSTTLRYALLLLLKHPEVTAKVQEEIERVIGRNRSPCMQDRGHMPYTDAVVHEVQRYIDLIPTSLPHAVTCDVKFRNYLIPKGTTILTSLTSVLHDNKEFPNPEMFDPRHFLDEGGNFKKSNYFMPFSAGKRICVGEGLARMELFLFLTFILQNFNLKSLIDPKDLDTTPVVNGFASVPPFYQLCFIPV
In the next data set the target is T1, Cytochrome P450 1A2 (Homo sapiens, UniProt P05177).
T1 sequence (P05177 whole entry): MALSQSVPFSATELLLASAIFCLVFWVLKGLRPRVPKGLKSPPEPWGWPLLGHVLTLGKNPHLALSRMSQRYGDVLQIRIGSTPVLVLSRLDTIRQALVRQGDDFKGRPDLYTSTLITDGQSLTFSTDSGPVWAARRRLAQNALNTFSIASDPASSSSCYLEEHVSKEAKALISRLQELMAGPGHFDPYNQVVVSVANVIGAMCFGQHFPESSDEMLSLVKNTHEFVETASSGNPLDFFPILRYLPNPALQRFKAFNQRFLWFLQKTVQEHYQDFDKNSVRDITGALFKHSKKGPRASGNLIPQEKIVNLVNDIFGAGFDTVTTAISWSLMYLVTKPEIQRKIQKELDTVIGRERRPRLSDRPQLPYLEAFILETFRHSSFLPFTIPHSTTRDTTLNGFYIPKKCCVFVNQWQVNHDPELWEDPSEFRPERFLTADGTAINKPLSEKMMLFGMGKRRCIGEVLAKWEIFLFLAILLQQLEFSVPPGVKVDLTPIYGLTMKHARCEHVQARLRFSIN
In words: (§1) Drug metabolism assessed as human […]-mediated compound formation from 5 uM [14C]boceprevir after 120 mins by LC-MS/FSA method relative to total [14C]boceprevir. It counts as ADME. The settings on record: recombinant enzyme, 2 h.

Another data set deals with T2, Cytochrome P450 1A1 (Homo sapiens, UniProt P04798).
T2 sequence (P04798 whole entry): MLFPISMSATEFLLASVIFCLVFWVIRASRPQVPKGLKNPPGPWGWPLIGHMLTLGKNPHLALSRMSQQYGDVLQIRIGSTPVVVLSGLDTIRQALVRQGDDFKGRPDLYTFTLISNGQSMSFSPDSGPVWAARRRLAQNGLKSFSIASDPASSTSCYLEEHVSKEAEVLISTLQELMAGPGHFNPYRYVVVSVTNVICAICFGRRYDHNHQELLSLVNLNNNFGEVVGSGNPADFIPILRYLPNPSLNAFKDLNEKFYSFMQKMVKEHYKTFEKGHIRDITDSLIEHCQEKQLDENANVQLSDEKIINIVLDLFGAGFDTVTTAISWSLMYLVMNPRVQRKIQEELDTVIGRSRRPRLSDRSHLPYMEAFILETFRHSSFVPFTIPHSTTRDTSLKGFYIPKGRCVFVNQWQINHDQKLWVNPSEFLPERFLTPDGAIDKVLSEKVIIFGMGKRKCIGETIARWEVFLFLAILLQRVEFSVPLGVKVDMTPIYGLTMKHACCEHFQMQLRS
The data set is described as §1. Type of data set: ADME. To be noted: recombinant enzyme, 2 h.

The subject of data set [2] is Liver cytosol. In words: Drug metabolism in human liver cytosol treated with 20 uM [14C]boceprevir assessed as IC50 for AKR inhibitor diflunisal-mediated metabolite formation after 60 mins by LC-MS/MS/FSA method. The settings on record: 1 h. Type of data set: ADME, tissue-based.
For a further data set, the system named is Plasma. In words: Drug metabolism in human plasma treated with [14C]boceprevir assessed as ratio of drug level by LC-MS/MS method relative to boceprevir. Type of data set: ADME, cell-free.
The next data set deals with Liver microsome. As to the kind of experiment: Drug metabolism in human liver microsomes treated with 20 uM [14C]boceprevir assessed as compound formation by LC-MS/FSA method relative to total [14C]boceprevir. Type of data set: ADME.
The next data set concerns the target T3, Cytochrome P450 2B6 (Homo sapiens, UniProt P20813).
T3 sequence (P20813 whole entry): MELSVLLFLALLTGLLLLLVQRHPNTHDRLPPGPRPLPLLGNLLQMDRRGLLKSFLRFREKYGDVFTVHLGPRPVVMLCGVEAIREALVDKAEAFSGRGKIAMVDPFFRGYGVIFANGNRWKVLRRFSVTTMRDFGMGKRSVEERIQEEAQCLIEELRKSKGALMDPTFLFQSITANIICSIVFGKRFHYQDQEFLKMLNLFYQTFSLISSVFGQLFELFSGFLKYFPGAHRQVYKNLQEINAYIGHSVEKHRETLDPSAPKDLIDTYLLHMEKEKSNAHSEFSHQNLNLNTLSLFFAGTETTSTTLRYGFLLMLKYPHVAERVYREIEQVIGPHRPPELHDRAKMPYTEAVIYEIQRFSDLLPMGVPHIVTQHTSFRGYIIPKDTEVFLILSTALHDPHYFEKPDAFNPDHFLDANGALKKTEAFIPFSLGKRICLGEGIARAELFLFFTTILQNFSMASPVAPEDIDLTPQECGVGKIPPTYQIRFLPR
As to the kind of experiment: Drug metabolism assessed as human CYP2B6-mediated compound formation from 5 uM [14C]boceprevir after 120 mins by LC-MS/FSA method relative to total [14C]boceprevir. To be noted: recombinant enzyme, 2 h. It counts as ADME.

In a further data set the target is Cytochrome P450 2D6 (Homo sapiens, UniProt P10635). In words: Drug metabolism assessed as human CYP2D6-mediated compound formation from 5 uM [14C]boceprevir after 120 mins by LC-MS/FSA method relative to total [14C]boceprevir. It counts as ADME. The settings on record: recombinant enzyme, 2 h.
Sequence of Cytochrome P450 2D6 (P10635 whole entry): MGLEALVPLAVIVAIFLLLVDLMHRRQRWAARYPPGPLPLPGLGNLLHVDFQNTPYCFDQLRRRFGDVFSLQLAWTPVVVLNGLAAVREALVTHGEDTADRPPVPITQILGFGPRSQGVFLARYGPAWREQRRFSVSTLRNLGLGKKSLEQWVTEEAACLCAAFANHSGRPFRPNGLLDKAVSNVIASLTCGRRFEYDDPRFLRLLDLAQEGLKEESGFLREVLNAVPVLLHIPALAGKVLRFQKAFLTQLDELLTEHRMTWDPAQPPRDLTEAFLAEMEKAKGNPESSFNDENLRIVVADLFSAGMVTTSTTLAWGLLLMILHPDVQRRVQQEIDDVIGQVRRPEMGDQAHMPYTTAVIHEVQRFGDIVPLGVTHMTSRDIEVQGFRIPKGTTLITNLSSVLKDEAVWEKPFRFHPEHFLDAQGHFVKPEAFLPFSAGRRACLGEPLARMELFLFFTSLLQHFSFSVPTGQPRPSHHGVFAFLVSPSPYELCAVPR
A further data set deals with Cytochrome P450 3A4 (Homo sapiens, UniProt P08684). In words: Drug metabolism assessed as human CYP3A4-mediated compound formation from 20 uM [14C]boceprevir after 120 mins by LC-MS/FSA method relative to total [14C]boceprevir. Type of data set: ADME. The settings on record: recombinant enzyme, 2 h.
Sequence of Cytochrome P450 3A4 (P08684 whole entry): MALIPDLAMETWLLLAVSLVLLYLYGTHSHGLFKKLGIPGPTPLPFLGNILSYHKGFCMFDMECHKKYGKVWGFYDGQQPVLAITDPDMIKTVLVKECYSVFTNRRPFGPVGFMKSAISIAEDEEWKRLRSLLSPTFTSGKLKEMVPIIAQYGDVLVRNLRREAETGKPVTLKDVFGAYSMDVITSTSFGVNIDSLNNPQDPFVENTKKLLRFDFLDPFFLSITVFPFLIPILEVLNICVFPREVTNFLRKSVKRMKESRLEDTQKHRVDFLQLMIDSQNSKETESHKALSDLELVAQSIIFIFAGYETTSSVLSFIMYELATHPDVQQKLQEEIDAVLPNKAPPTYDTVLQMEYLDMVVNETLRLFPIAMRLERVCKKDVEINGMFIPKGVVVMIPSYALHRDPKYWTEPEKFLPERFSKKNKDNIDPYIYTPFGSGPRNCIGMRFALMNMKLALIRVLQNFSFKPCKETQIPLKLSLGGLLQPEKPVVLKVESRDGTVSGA
In data set [3] the test system is Liver cytosol. As to the kind of experiment: Drug metabolism in human liver cytosol at 20 uM assessed as (1R,2S,5S)-N-((2S,3R)-4-amino-1-cyclobutyl-3-hydroxy-4-oxobutan-2-yl)-3-((S)-2-(3-tert-butylureido)-3,3-dimethylbutanoyl)-6,6-dimethyl-3-azabicyclo[3.1.0]hexane-2-carboxamide formation in presence of BNPP by LC-MS/MS/FSA method. It counts as ADME.

A word on the IC50: it is the point on the concentration scale where inhibition reaches its midpoint.

Sequence of Cytochrome P450 3A5 (P20815 whole entry): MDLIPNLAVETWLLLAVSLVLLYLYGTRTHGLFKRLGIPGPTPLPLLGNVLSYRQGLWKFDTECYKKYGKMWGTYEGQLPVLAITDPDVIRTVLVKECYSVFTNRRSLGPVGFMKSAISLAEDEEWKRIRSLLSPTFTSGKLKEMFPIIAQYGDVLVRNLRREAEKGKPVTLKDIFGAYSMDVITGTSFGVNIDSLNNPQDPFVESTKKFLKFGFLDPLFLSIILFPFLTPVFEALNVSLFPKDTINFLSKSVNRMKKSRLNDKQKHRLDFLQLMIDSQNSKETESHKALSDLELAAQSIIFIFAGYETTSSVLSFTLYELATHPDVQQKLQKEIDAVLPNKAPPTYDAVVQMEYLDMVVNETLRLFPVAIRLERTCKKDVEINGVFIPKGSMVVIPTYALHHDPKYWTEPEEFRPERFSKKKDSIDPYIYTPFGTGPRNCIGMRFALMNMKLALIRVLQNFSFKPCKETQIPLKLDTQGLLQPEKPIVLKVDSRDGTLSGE

As for `CC(C)(C)NC(=O)N[C@H](C(=O)N1C[C@H]2[C@@H]([C@H]1C(=O)N[C@@H](CC1CCC1)[C@@H](O)C(N)=O)C2(C)C)C(C)(C)C`, the Compound recovery result at Cytochrome P450 3A5 (BLD = below limit of detection) is recorded as “BLD”; on Cytochrome P450 2C19, 0.38%; on Cytochrome P450 1A2, 0.34%; at Cytochrome P450 1A1, 0.57%; in the data set on Plasma, “>= 50%”; in the data set with Liver microsome, 0.6%. In addition, the Compound recovery is 0.9% at Cytochrome P450 2B6, 0.56% at Cytochrome P450 2D6 and “BLD” at Cytochrome P450 3A4 (BLD = below limit of detection). The same molecule displayed a Retention_time in [1] of 40.1 min. Moreover, the IC50 with Liver cytosol [2] was determined as 4.58 µM.

Consider `CC(C)(C)NC(=O)N[C@H](C(=O)N1C[C@H]2[C@@H]([C@H]1C(=O)N[C@H](CC1CCC1)C(=O)C(N)=O)C2(C)C)C(C)(C)C`, for which the Compound recovery is given as 19.67% at Cytochrome P450 3A5; 30.71% at Cytochrome P450 2C19; 31.72% at Cytochrome P450 1A2; 33.4% on Cytochrome P450 1A1; “>= 50%” in the data set with Plasma; “metabolite_not_detected” in the data set with Liver cytosol [3]. Moreover, the Compound recovery turned out to be 17.42% with Liver microsome, 33.77% at Cytochrome P450 2B6, 31.66% at Cytochrome P450 2D6 and 18.98% at Cytochrome P450 3A4. In [1], this molecule yielded a Retention_time of 44.6 min.

On to `CC(C)(C)NC(=O)N[C@H](C(=O)N1C[C@H]2[C@@H]([C@H]1C(=O)NC(CC1CCC1)C(=O)C(N)=O)C2(C)C)C(C)(C)C` (some centres undefined) [BOCEPREVIR], for which the 50% inhibitory concentration (IC50) with Liver cytosol [2] is 4.58 µM. Further, the Compound recovery result with Liver cytosol [3] is “metabolite_not_detected”.
